This note sets out measurements from US20110086759A1, “CHEMICAL COMPOUNDS” (SYNGENTA CROP PROTECTION, INC., priority 2007, published 2011).

Holding throughout (type): in vivo
In test [1] the test system is Echinochloa crus-galli (ECHCG). As to the kind of experiment: Pre-emergence biological efficacy, glasshouse pot test. The note with it: 312 h, pre-emergence, rate 1,000 g/ha, evaluated after 13 days (100=total damage to plant; 0=no damage), read-out: Percentage damage caused to weed species, ECHCG. The method, boiled down:
(§1)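 Damage was rated on a 0–100 scale 13 days after treatment, with plants kept at 24/16° C, 14 h light and 65% humidity. The pre-emergence spray, at 1000 or 250 g/ha in acetone/water 50:50 with 0.5% Tween 20, was applied one day after sowing.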

The test system of test [2] is Solanum nigrum (SOLNI). The test is described as above. The note with it: 312 h, pre-emergence, rate 1,000 g/ha, evaluated after 13 days (100=total damage to plant; 0=no damage), read-out: Percentage damage caused to weed species, SOLNI. A digest of the protocol: as §1
For test [3], the system named is Ipomea hederaceae (IPOHE). Described as above. The note with it: Ipomoea hederacea, 312 h; pre-emergence, rate 1,000 g/ha, evaluated after 13 days (100=total damage to plant; 0=no damage); read-out: Percentage damage caused to weed species, IPOHE. The method, boiled down:
as §1

In test [4] the test system is Setaria faberi (SETFA). The test is described as above. The note with it: 312 h, pre-emergence, rate 1,000 g/ha, evaluated after 13 days (100=total damage to plant; 0=no damage), read-out: Percentage damage caused to weed species, SETFA. A digest of the protocol: as §1
In test [5] the test system is Alopecurus myosuroides (ALOMY). Described as above. The note with it: 312 h, pre-emergence, rate 1,000 g/ha, evaluated after 13 days (100=total damage to plant; 0=no damage), read-out: Percentage damage caused to weed species, ALOMY. The method, boiled down:
as §1

Test [6] deals with Amaranthus retoflexus (AMARE). Described as above. The note with it: Amaranthus retroflexus, 312 h; pre-emergence, rate 1,000 g/ha, evaluated after 13 days (100=total damage to plant; 0=no damage); read-out: Percentage damage caused to weed species, AMARE. The method, boiled down:
as §1

The subject of test [7] is Echinochloa crus-galli (ECHCG). As to the kind of experiment: Post-emergence biological efficacy, glasshouse pot test. Conditions: 312 h, Rate 1,000 g/ha, post-emergence spray, evaluated after 13 days (100=total damage to plant; 0=no damage to plant), read-out: Percentage damage caused to weed species, post-emergence, ECHCG. The method, boiled down: (§2)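 Scored 13 days after spraying on a 0 (no damage) to 100 (total damage) scale. Treatment was a post-emergence spray at 1000 or 250 g/ha, from acetone/water 50:50 plus 0.5% Tween 20, onto 8-day-old plants in soil pots. Growth at 24/16° C, 14 h photoperiod, 65% humidity, watered twice daily.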

The test system of test [8] is Solanum nigrum (SOLNI). The test is described as above. The note with it: 312 h, Rate 1,000 g/ha, post-emergence spray, evaluated after 13 days (100=total damage to plant; 0=no damage to plant), read-out: Percentage damage caused to weed species, post-emergence, SOLNI. The method, boiled down: as §2
The test system of test [9] is Ipomea hederaceae (IPOHE). The description is as above. Conditions: Ipomoea hederacea, 312 h; Rate 1,000 g/ha; post-emergence spray; evaluated after 13 days (100=total damage to plant; 0=no damage to plant); read-out: Percentage damage caused to weed species, post-emergence, IPOHE. A digest of the protocol: as §2
For test [10], the system named is Setaria faberi (SETFA). The description is as above. Conditions: 312 h, Rate 1,000 g/ha, post-emergence spray, evaluated after 13 days (100=total damage to plant; 0=no damage to plant), read-out: Percentage damage caused to weed species, post-emergence, SETFA. A digest of the protocol: as §2
For test [11], the system named is Alopecurus myosuroides (ALOMY). The test is described as above. The note with it: 312 h, Rate 1,000 g/ha, post-emergence spray, evaluated after 13 days (100=total damage to plant; 0=no damage to plant), read-out: Percentage damage caused to weed species, post-emergence, ALOMY. The method, boiled down:
as §2

The subject of test [12] is Amaranthus retoflexus (AMARE). The test is described as above. The note with it: Amaranthus retroflexus, 312 h; Rate 1,000 g/ha; post-emergence spray; evaluated after 13 days (100=total damage to plant; 0=no damage to plant); read-out: Percentage damage caused to weed species, post-emergence, AMARE. The method, boiled down:
as §2

Take `CCN(c1nc(C2CC2)nc(C(=O)OC)c1Cl)C1CCCCC1` [Compound 6-35, 5-Chloro-4-(N-cyclohexyl-N-ethyl-amino)-2-cyclo-propyl-6-methoxy-carbonylpyrimidine]: the pest or weed control at 1000 g/ha in [1] turned out to be 0%; in [2], 60%; in test [3] it was 30%; in [4], 0%; in test [5], 10%; in [6] it was 100%. Also, the pest or weed control at 1000 g/ha in test [7] turned out to be 0%; in test [8], 70%; in [9] it was 80%; in [10] it was 40%; in test [11] it was 0%; in test [12] it was 70%.
Turning to `CCN(Cc1ccccc1)c1nc(C2CC2)nc(C(=O)OC)c1Cl` [Compound 6-60, 5-Chloro-2-cyclopropyl-4-([N-ethyl-N-phenylmethyl]-amino)-6-methoxycarbonyl-pyrimidine], the pest or weed control at 1000 g/ha stood at 20% in test [1]; 100% in test [2]; 20% in [3]; 30% in [4]; 20% in [5]; 100% in test [6]. Moreover, the pest or weed control at 1000 g/ha in test [7] turned out to be 70%; in [8], 90%; in [9], 100%; in test [10] it was 90%; in test [11], 30%; in test [12], 100%.
`CCN(Cc1ccccc1F)c1nc(C2CC2)nc(C(=O)OC)c1Cl` [Compound 6-64, 5-Chloro-2-cyclopropyl-4-[N-ethyl-N-(2-fluoro-phenyl)methyl-amino]-6-methoxycarbonyl-pyrimidine]: the pest or weed control at 1000 g/ha turned out to be 20% in [1]; 20% in test [2]; 50% in [3]; 30% in test [4]; 10% in test [5]; 60% in [6]. The pest or weed control at 1000 g/ha in test [7] stood at 70%; in [8], 100%; in test [9] it was 100%; in [10], 90%; in test [11], 30%; in test [12], 100%.
As for `CCN(Cc1cccc(F)c1)c1nc(C2CC2)nc(C(=O)OC)c1Cl` [Compound 6-65, 5-Chloro-2-cyclopropyl-4-[N-ethyl-N-(3-fluorophenylmethyl)-amino]-6-methoxycarbonyl-pyrimidine], the pest or weed control at 1000 g/ha was 20% in test [1]; 40% in test [2]; 70% in test [3]; 30% in test [4]; 20% in [5]; 70% in [6]. The pest or weed control at 1000 g/ha came out at 70% in [7]; 90% in test [8]; 100% in [9]; 90% in test [10]; 10% in test [11]; 100% in test [12].
In the case of `CCN(Cc1ccc(F)cc1)c1nc(C2CC2)nc(C(=O)OC)c1Cl` [Compound 6-66, 5-Chloro-2-cyclopropyl-4-[N-ethyl-N-(4-fluorophenylmethyl)-amino]-6-methoxycarbonyl-pyrimidine], the pest or weed control at 1000 g/ha in test [1] came to 0%; in [2], 20%; in [3], 80%; in [4], 10%; in [5], 20%; in test [6], 50%. The pest or weed control at 1000 g/ha was determined as 60% in test [7]; 90% in [8]; 100% in test [9]; 90% in [10]; 40% in [11]; 100% in [12].
Regarding `CCN(Cc1c(F)cccc1Cl)c1nc(C2CC2)nc(C(=O)OC)c1Cl` [Compound 6-102, 5-Chloro-4-[N-(2-chloro-6-fluorophenylmethyl)-N-ethyl-amino]-2-cyclopropyl-6-methoxycarbonyl-pyrimidine], the pest or weed control at 1000 g/ha stood at 0% in [1]; 60% in [2]; 60% in test [3]; 0% in [4]; 0% in test [5]; 100% in test [6]. Also, the pest or weed control at 1000 g/ha in test [7] came out at 70%; in [8] it was 90%; in [9], 90%; in [10], 80%; in test [11], 20%; in test [12] it was 100%.
`CCN(Cc1ccc(OC)c(OC)c1)c1nc(C2CC2)nc(C(=O)OC)c1Cl` [Compound 6-112, 5-Chloro-2-cyclopropyl-4-[N-(3,4-dimethoxy-phenylmethyl)-N-ethyl-amino]-6-methoxycarbonyl-pyrimidine]: the pest or weed control at 1000 g/ha in test [1] worked out at 10%; in test [2] it was 10%; in test [3] it was 60%; in test [4], 0%; in [5], 10%; in test [6], 60%. For the same compound, the pest or weed control at 1000 g/ha in [7] amounted to 70%; in [8], 80%; in [9] it was 80%; in test [10], 80%; in [11], 30%; in [12], 100%.
`CCN(Cc1ccco1)c1nc(C2CC2)nc(C(=O)OC)c1Cl` [Compound 6-125, 5-Chloro-2-cyclopropyl-4-(N-ethyl-N-furan-2-ylmethyl-amino)-6-methoxycarbonyl-pyrimidine]: the pest or weed control at 1000 g/ha in test [1] stood at 40%; in [2], 80%; in test [3], 100%; in [4] it was 30%; in test [5], 50%; in test [6] it was 90%. The pest or weed control at 1000 g/ha in test [7] was found to be 60%; in [8], 90%; in test [9], 100%; in test [10], 90%; in test [11], 40%; in test [12], 100%.
